Reference: US7538234B2, “Preparation of Optically active 2-(1-hydroxyethyl)-5-hydroxynaphtho[2,3-b]furan-4, 9-diones having anticancer activities” (Taheebo Japan Co., Ltd., priority 2007, dated 2009)

Legend:
[1] = system: human breast cancer cell MCF-7; test: Cytotoxicity experiment (trypan blue dead cell count, 3 days incubation); format: cell-based; conditions: for EC50: concentration of 50% of dead cells, 3 days incubation
Procedure: (§1) Cytotoxicity experiments were carried out by using human prostate cancer cell PC-3 (Invest. Urology 17: 16, (1979)), human lung cancer cell A-549 (J. Nat. Cancer Inst. 51: 1417, (1973)) and human breast cancer cell MCF-7 (cr. Table 1). Cells used in the experiments were obtained from Laboratory Products Dept. of Dainippon Pharmaceuticals Inc. (now Dainippon Sumitomo Pharma Co., Ltd.). • (1) In 3 cm plastic petri dish, 5×10^6 of the above human origin cancer cell was incubated at 37° C. under 5% CO2 gas on an incubation medium wherein 10% fetal bovine serum (FBS) was added to a basal medium Dulbecco's modified eagle medium (DMEM). • (2) It was confirmed 1 day after the incubation that the cells were adhered to the petri dish. All incubation media were discarded, and to the cells were added fresh media (1 ml) to give reaction media. Thereto was added a solution of a test compound in DMSO (2 μl), and the mixture was incubated for 3 days under the same conditions as in the above (1). • (3) 3 days after the incubation, all cells were collected with a scrapper, and the mixture was softly stirred. Then, an aliquot (0.1 ml) was taken into a tube, and thereto was added 0.25% trypan blue solution (0.1 ml), and the mixture was stirred and then allowed to stand for 10 minutes. Both of dead and live cells suspended in the mixture were observed using a white cell counter under light microscope to calculate cytotoxicity effects to the cancer cells. • (4) The number of the observed dead cells was calculated on the basis of the total number of cells observed as 100% using a white cell counter. Each bioactivity evaluation of each compound was represented by EC50 value (μM), which refers to a concentration of 50% of dead cells (cf. Table 1).

[2] = system: human lung cancer cell A-549; test: as above; format: cell-based; conditions: for EC50: concentration of 50% of dead cells, 3 days incubation
Procedure: as §1

[3] = system: human prostate cancer cell PC-3; test: as above; format: cell-based; conditions: for EC50: concentration of 50% of dead cells, 3 days incubation
Procedure: as §1

[4] = system: Epstein-Barr virus early antigen (EBV-EA); test: Inhibitory effect of TPA-induced EBV-EA activation in Raji cells; format: cell-based, human; conditions: for EBV-EA-positive cell: Raji cells, 2 days
Procedure: (§2) Additionally, cancer-preventing effects about Epstein-Barr virus early antigen (EBV-EA) using Raji cell, which was available from George Klein, Karolinska Institute, Sweden, were studied (cf. Table 2). • (1) To a reaction culture (1 ml) in a 15 ml plastic tube were added 1×10^6 of lymphoma Raji cells of human origin, and the mixture was incubated for 2 days at 37° C. under 5% CO2 gas. The reaction culture was a solution wherein butyric acid was added to RPMI-1640 (Roswell Park Memorial Institute) medium containing 8% FBS in a concentration of 4 mM. In case of positive controls, to the reaction culture was added 12-O-tetradecanoylphorbol-13-acetate (TPA) (20 ng, 32 pmol). • (2) Analysis was carried out by adding test compounds to the reaction culture in the above (1) with TPA in 1000, 500, 100 and 10 times higher concentration by mole (32, 16, 3.2 and 0.32 nmol) to TPA and incubating in a similar manner to the above. • (3) 2 days after incubation, a reaction tube was centrifuged at 1000 rpm for 10 minutes, and supernatants were discarded to collect reaction cells at the bottom of the tube, and thereto was added a phosphate buffered saline (0.1 ml) and the mixture was mixed well. To a glass slide for pathological pieces was added the mixture (5 μl), and then the mixture was air-dried to dryness. • (4) An antigen-antibody reaction was carried out at 37° C. in wet process by adding a diluted serum (1 μl) of patient with epipharynx carcinoma to the dried mixture. 45 minutes after the reaction, the resultant was washed with neutral phosphate buffer three times and then air-dried in a similar manner to the above. Then, thereto was added human blood gamma globulin antibody (1 μl), wherein a fluorescent substance was bound, to carry out an antigen-antibody reaction. 45 minutes after the reaction, the mixture was washed with neutral phosphate buffer to give a test sample. • (5) The test sample on a glass slide was observed under fluorescent light microscope. Both of dead and live cells were calculated, and the survival ratio in percentage is shown as a cancer-preventing activity, and the data of each sample were compared (cf. Table 2).

[5] = system: Raji cell; test: Survival of Raji cells in the EBV-EA activation test; format: cell-based, human; conditions: 2 days
Procedure: as §2

[6] = compound concentration 10 (molar ratio/32 pmol TPA)
[7] = compound concentration 100 (molar ratio/32 pmol TPA)
[8] = compound concentration 500 (molar ratio/32 pmol TPA)
[9] = compound concentration 1000 (molar ratio/32 pmol TPA)

SMILES | EC50 ([1]; Homo sapiens, MCF7, 72 h) [nM] | EC50 ([2]; Homo sapiens, A549, 72 h) [nM] | EC50 ([3]; Homo sapiens, 72 h) [nM] | EBV-EA-positive cell [4, 6] [%] | EBV-EA-positive cell [4, 7] [%] | EBV-EA-positive cell [4, 8] [%] | EBV-EA-positive cell [4, 9] [%] | % survival (value in parentheses) [5, 8] | % survival (value in parentheses) [5, 9] [%] | cytotoxicity compared with mitomycin ([1]; MCF-7, statement in words) | cytotoxicity compared with mitomycin ([2]; A-549, statement in words) | cytotoxicity compared with mitomycin ([3]; PC-3, statement in words) | inhibition of EBV-EA expression ([4]; statement in words) | EC50 [1] [nM] | EC50 [2] [nM] | EC50 [3] [nM]
CC(O)c1cc2c(o1)C(=O)c1cccc(O)c1C2=O (racemic) [Racemate NQ801, 2-(1-hydroxyethyl)-5-hydroxynaphtho[2,3-b]furan-4,9-dione] | 8500 | 3240 | 560 | 52.9 | 20.7 | 6.2 | 0 | (70) % | 60 | – | – | – | – | – | – | –
CC1(C)CCC2=C(O1)c1ccccc1C(=O)C2=O [β-Lapachone, 3,4-dihydro-2,2-dimethyl-2H-naphtho(1,2-b)pyrane-5,6-dione] | – | – | – | 73.1 | 50.4 | 21.7 | 4.7 | – | 50 | – | – | – | – | – | – | –
C[C@H](O)c1cc2c(o1)C(=O)c1cccc(O)c1C2=O [(S)-NQ801, (S)-2-(1-hydroxyethyl)-5-hydroxynaphtho[2,3-b]-furan-4,9-dione] | 3500 | 960 | 140 | 50 | 16.9 | 4.4 | 0 | (60) % | 60 | same cytotoxicity as mitomycin | same cytotoxicity as mitomycin | same cytotoxicity as mitomycin | inhibits EBV-EA expression | – | – | –
CO[C@@]12[C@H](COC(N)=O)C3=C(C(=O)C(C)=C(N)C3=O)N1C[C@@H]1N[C@@H]12 [Mitomycin] | 960 | 430 | 140 | – | – | – | – | – | – | – | – | – | – | – | – | –
C[C@@H](O)c1cc2c(o1)C(=O)c1cccc(O)c1C2=O [(R)-NQ801] | – | – | – | 59.4 | 24.7 | 9.7 | 0 | – | 70 | – | – | – | – | 9300 | 3000 | 930
